≈ marks a conversion by molar mass, not a printed value.
Tests used:
Format in all cases: physicochemical
[1] = Hygroscopicity by dynamic vapor sorption (DVS); conditions: for Hygroscopicity (in words): 25° C./80% RH; for Weight gain under 80% Relative Humidity: DVS, 25° C., 80% RH
Method: Dynamic vapor sorption (DVS) was applied to test hygroscopicity of Form CS1, Form CS9 and the prior art solid with about 10 mg of samples under 25 °C. The DVS plots of Form CS1, Form CS9 and the prior art solid are substantially as depicted in FIG. 10, FIG. 11 and FIG. 12.

[2] = Physical stability of drug substance on storage (XRPD before/after); conditions: for Solid form after storage: 3 months, XRPD; for Time for which crystalline form of drug substance doesn't change on storage: 40° C./75% RH and 60° C./75% RH
Method: Form CS1 was stored under different conditions of 25° C./60% RH, 40° C./75% RH and 60° C./75% RH. The XRPD pattern overlay before and after being stored is substantially as depicted in FIG. 13, FIG. 14 and FIG. 15.
Form CS9 was stored under different conditions of 25° C./60% RH, 40° C./75% RH and 60° C./75% RH. The XRPD pattern overlay before and after being stored is substantially as depicted in FIG. 16, FIG. 17 and FIG. 18.

[3] = Kinetic solubility in SGF, FeSSIF, FaSSIF and pure water (HPLC); conditions: for Solubility (in words): SGF, FeSSIF, FaSSIF and pure water
Description: Solubility test method according to the Chinese Pharmacopoeia was used and different pHs of different organs in human body were considered. According to the above two references, a solvent media set with four pH values range from 1.2 to 7.5 were designed in the present disclosure. Specifically: SGF (Simulated gastric fluids, pH=1.8), FeSSIF (Fed state simulated intestinal fluids, pH=5.0), FaSSIF (Fasted state simulated intestinal fluids, pH=6.5), and pure water were used.
Form CS1 and Form CS9 of the present disclosure were suspended into SGF, FeSSIF, FaSSIF and H2O to obtain saturated solutions. The solutions were sampled at fixed time points. Concentrations of the saturated solutions were measured by HPLC to measure the kinetic solubility of Form CS1 and Form CS9.

[4] = Flowability by compressibility index (USP 1174); conditions: for Bulk density: 5 mL measuring cylinder, before tapping; for Tapped density: 500 taps; for Compressibility index: (Tapped Density−Bulk Density)/Tapped Density×100%; for Flowability: scale of USP 1174 by compressibility index
Method: According to the United States Pharmacopeia (USP) 1174, flowability of Form CS1 and Form CS9 of the present disclosure were evaluated by the compressibility index. The bulk density, tapped density of Form CS1 and Form CS9 were tested, and compressibility index was calculated.
1. Test Method • Samples: Form CS1 and Form CS9 • Instrument: Tap density tester • Utensil: 5 mL measuring cylinder • Number of tapping: 500 times • Bulk density=m/vQ (Mass/volume before tapping) • Tapped density=m/vt (Mass/volume after tapping)
2. Calculation Formula: Compressibility Index (%)=(Tapped Density−Bulk Density)/Tapped Density×100%

[5] = In vitro dissolution of tablets (Chinese Pharmacopoeia 2015 <0931>, paddle); conditions: tablet, pH=6.8 phosphate buffer + 1% SDS, 37° C., 75 rpm
Method: (§1) Form CS1 or Form CS9 of GSK1278863, microcrystalline cellulose, croscarmellose sodium and magnesium stearate were weighed according to formulation in Table 14 and blended for 2 minutes. The tablets were prepared using a manual tablet press at 5 KN±1 KN pressure with a φ7 mm round tooling. The tablets tablet weight is 100 mg±1 mg. The obtained tablets were packed in 35 cc HDPE bottles (one tablet per bottle) with 1 g desiccant. The bottles were sealed with a sealer.
In vitro dissolution test was performed on obtained tablets and dissolution method according to Chinese Pharmacopoeia 2015<0931> was used. The conditions are as follows:
Medium: pH=6.8 phosphate buffer solution+1% sodium dodecyl sulfate aqueous solution

[6] = Stability of crystalline form in drug products (tablets); conditions: for Crystalline form before and after formulation process (in words): blending and tableting at 5 KN±1 KN; for Crystalline form of drug substance in the drug products after storage (in words): tablets, 40° C., 1 month
Method: as §1
The above obtained tablets were stored under 40° C./[…] condition for 1 month. […] The results are shown in Table 16, which indicate that Form CS1 and Form CS9 have good stability in the drug products.

SMILES	Hygroscopicity (in words) [1]	Weight gain under 80% Relative Humidity [1]	Solid form after storage ([2]; 25° C./60% RH)	Time for which crystalline form of drug substance doesn't change on storage ([2]; 25° C./60% RH)	Solid form after storage ([2]; 40° C./75% RH)	Solid form after storage ([2]; 60° C./75% RH)	Kinetic solubility ([3]; FaSSIF (pH=6.5), 24 h)	Kinetic solubility ([3]; H2O, 24 h)	Kinetic solubility ([3]; SGF (pH=1.8), 24 h)	Solubility (in words) [3]	Bulk density [4]	Tapped density [4]	Compressibility index [4]	Flowability [4]	Crystalline form before and after formulation process (in words) [6]	Crystalline form of drug substance in the drug products after storage (in words) [6]	further results
O=C(O)CNC(=O)C1C(=O)N(C2CCCCC2)C(=O)N(C2CCCCC2)C1=O [Form CS1]	not hygroscopic	0.53%	Form CS1	at least 3 months	Form CS1	Form CS1	27 µg/mL	16 µg/mL	3 µg/mL	good solubility	0.15 g/mL	0.19 g/mL	21%	Passable (21%-25%, passable flowability)	doesn't change	does not change	solubility kinetic at 1 h ([3]; FaSSIF (fasted state simulated intestinal fluid), pH 6.5, fassif, thermodynamic from solid, FaSSIF (pH=6.5), 1 h): 63 µg/mL (≈ 160 µM); solubility kinetic at 4 h ([3]; FaSSIF (fasted state simulated intestinal fluid), pH 6.5, fassif, thermodynamic from solid, FaSSIF (pH=6.5), 4 h): 50 µg/mL (≈ 127 µM); solubility kinetic at 1 h ([3]; FeSSIF (fed state simulated intestinal fluid), pH 5, fessif, thermodynamic from solid, FeSSIF (pH=5.0), 1 h): 190 µg/mL (≈ 483 µM); solubility kinetic at 4 h ([3]; FeSSIF (fed state simulated intestinal fluid), pH 5, fessif, thermodynamic from solid, FeSSIF (pH=5.0), 4 h): 190 µg/mL (≈ 483 µM); solubility kinetic at 24 h ([3]; FeSSIF (fed state simulated intestinal fluid), pH 5, fessif, thermodynamic from solid, FeSSIF (pH=5.0), 24 h): 160 µg/mL (≈ 407 µM); solubility kinetic at 1 h ([3]; SGF (simulated gastric fluid), pH 1.8, simulated gastric fluid, thermodynamic from solid, SGF (pH=1.8), 1 h): 3.1 µg/mL (≈ 7.88 µM); solubility kinetic at 4 h ([3]; SGF (simulated gastric fluid), pH 1.8, simulated gastric fluid, thermodynamic from solid, SGF (pH=1.8), 4 h): 3.1 µg/mL (≈ 7.88 µM); solubility kinetic at 1 h ([3]; pure water, water, thermodynamic from solid, H2O, 1 h): 14 µg/mL (≈ 35.6 µM); solubility kinetic at 4 h ([3]; pure water, water, thermodynamic from solid, H2O, 4 h): 26 µg/mL (≈ 66.1 µM); Cumulative drug release ([5]; 5 min): 0.0%; Cumulative drug release ([5]; 10 min): 67.7%; Cumulative drug release ([5]; 20 min): 75.8%; Cumulative drug release ([5]; 30 min): 84.8%; Cumulative drug release ([5]; 45 min): 90.1%; Cumulative drug release ([5]; 60 min): 95.2%; Cumulative drug release ([5]; 90 min): 98.3%; Cumulative drug release ([5]; 120 min): 102.5%
O=C(O)CNC(=O)C1C(=O)N(C2CCCCC2)C(=O)N(C2CCCCC2)C1=O [Form CS9]	not hygroscopic	0.22%	Form CS9	at least 3 months	Form CS9	Form CS9	81 µg/mL	60 µg/mL	9.3 µg/mL	good solubility	0.11 g/mL	0.14 g/mL	21%	Passable (21%-25%, passable flowability)	doesn't change	does not change	Kinetic solubility ([3]; FaSSIF (pH=6.5), 1 h): 58 µg/mL; Kinetic solubility ([3]; FaSSIF (pH=6.5), 4 h): 81 µg/mL; Kinetic solubility ([3]; FeSSIF (pH=5.0), 1 h): 150 µg/mL; Kinetic solubility ([3]; FeSSIF (pH=5.0), 4 h): 170 µg/mL; Kinetic solubility ([3]; FeSSIF (pH=5.0), 24 h): 140 µg/mL; Kinetic solubility ([3]; H2O, 1 h): 20 µg/mL; Kinetic solubility ([3]; H2O, 4 h): 38 µg/mL; Kinetic solubility ([3]; SGF (pH=1.8), 1 h): 3.9 µg/mL; Kinetic solubility ([3]; SGF (pH=1.8), 4 h): 4.2 µg/mL
O=C(O)CNC(=O)C1C(=O)N(C2CCCCC2)C(=O)N(C2CCCCC2)C1=O [The prior art solid, reference compound]	higher hygroscopicity	1.14%	–	–	–	–	–	–	–	–	–	–	–	–	–	–	Weight gain under 80% Relative Humidity ([1]; listed as prior art solid): 1.14%

Reference: patent US11117871B2, “Crystalline forms of GSK1278863, preparation method and pharmaceutical use thereof” (GlaxoSmithKline Intellectual Property (No.2) Limited, priority 2017, dated 2021)
